Assay results reported in ChEMBL document CHEMBL5346978, “Exploration of Tetrahydroisoquinoline- and Benzo[c]azepine-Based Sphingosine 1-Phosphate Receptor 1 Agonists for the Treatment of Multiple Sclerosis” (J Med Chem, 2023).
pEC50: −log10 of the molar value. Blank lines part the entries; values can stand above or below the compound they belong to. Calls of active or inactive are those of the source. No cut-off for these calls is given here.

Key:
CYP3A4 = CYP3A4 (Homo sapiens, UniProt P08684); assay: Inhibition of CYP3A4 in human liver microsomes using midazolam as substrate assessed as residual activity at 10 uM preincubated for 5 mins followed by substrate addition and measured after 15 mins in presence of NADPH by LC-MS/MS analysis; type: ADME, Microsome; settings: probe midazolam, time 20 min, read-out: Activity
Chain of CYP3A4 (P08684 whole entry): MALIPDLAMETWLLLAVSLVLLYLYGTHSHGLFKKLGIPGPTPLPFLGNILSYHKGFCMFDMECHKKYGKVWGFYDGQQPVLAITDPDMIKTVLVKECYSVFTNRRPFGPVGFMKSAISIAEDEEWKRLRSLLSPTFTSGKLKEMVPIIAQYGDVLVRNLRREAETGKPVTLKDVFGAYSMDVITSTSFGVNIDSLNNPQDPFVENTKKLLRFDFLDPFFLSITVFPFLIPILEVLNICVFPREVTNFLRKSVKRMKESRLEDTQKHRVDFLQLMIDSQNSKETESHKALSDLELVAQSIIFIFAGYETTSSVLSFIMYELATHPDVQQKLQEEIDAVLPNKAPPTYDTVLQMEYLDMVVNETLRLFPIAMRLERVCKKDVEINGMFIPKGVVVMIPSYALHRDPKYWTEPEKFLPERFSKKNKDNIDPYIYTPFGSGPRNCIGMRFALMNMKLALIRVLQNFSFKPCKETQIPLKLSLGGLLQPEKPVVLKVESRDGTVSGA

[1] = biological target: Sphingosine 1-phosphate receptor 5 (Homo sapiens, UniProt Q9H228); assay: Agonist activity at S1P5 (unknown origin) expressed in CHO cells assessed as Ca2+ activation; type: functional, cell-based
Chain of Sphingosine 1-phosphate receptor 5 (Q9H228 whole entry): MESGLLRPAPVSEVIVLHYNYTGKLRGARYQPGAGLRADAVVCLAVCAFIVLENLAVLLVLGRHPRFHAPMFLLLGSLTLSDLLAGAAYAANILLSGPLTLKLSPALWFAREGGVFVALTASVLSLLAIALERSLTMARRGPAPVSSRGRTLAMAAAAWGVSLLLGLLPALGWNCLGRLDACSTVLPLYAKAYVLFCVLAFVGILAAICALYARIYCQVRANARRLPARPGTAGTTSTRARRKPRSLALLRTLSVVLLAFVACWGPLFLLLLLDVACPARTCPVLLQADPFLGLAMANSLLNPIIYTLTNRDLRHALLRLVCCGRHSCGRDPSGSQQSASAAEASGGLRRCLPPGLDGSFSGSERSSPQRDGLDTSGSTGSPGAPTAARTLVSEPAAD

[2] = biological target: Sphingosine 1-phosphate receptor 2 (Homo sapiens, UniProt O95136); assay: Agonist activity at S1P2 (unknown origin) expressed in PathHunter CHO-K1 EDG1 beta-arrestin cells assessed as beta-arrestin recruitment; type: functional, cell-based
Chain of Sphingosine 1-phosphate receptor 2 (O95136 whole entry): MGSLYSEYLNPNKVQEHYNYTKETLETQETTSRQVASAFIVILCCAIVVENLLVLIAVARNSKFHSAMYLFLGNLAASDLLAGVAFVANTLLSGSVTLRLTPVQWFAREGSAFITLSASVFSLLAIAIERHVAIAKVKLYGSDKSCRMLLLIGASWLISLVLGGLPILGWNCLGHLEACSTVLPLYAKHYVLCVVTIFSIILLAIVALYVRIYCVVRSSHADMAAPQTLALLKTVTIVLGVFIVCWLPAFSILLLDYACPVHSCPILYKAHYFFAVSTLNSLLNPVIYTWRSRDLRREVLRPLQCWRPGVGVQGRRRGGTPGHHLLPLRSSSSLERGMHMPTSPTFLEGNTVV

Mus musculus [3] = assay: In vivo agonist activity at S1P1 in po dosed mouse assessed as reduction in peripheral lymphocyte count at 1 to 10 mg/kg, po measured after 24 hrs; type: functional, organism-based; settings: dose 1-10 mg/kg
[4] = Tmax in ICR mouse at 10 mg/kg, po measured at 0.25 to 12 hrs by LC-MS/MS analysis; type: ADME, organism-based; settings: in vivo, time 0.25-12 hrs
[5] = Toxicity in C57BL/6 mouse assessed as body weight loss at 10 mg/kg, po administered once a day for 23 days; type: organism-based; settings: in vivo, 552 h, time 23 day
[6] = biological target: T1, Sphingosine 1-phosphate receptor 4 (Homo sapiens, UniProt O95977); assay: Agonist activity at S1P4 (unknown origin) expressed in CHO cells assessed as Ca2+ activation; type: functional, cell-based
T1 sequence (O95977 whole entry): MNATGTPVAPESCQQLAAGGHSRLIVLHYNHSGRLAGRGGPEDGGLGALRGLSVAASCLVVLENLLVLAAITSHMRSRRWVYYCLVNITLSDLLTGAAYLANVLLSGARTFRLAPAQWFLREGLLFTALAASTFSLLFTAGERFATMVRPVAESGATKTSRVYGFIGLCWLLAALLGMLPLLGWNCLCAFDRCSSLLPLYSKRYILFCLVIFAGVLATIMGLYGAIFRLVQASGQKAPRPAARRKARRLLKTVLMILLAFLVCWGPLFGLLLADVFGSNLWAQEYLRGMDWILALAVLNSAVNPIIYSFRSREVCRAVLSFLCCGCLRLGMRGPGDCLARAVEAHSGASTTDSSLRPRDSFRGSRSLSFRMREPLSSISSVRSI

[7] = Observed volume of distribution at steady state in ICR mouse at 1 mg/kg, iv measured at 0.25 to 12 hrs by LC-MS/MS analysis; type: ADME, organism-based; settings: in vivo, time 0.25-12 hrs, read-out: Vdss
Mus musculus [8] = assay: In vivo agonist activity at S1P1 in po dosed mouse assessed as reduction in peripheral lymphocyte count measured at 6 hrs; type: functional, organism-based; settings: dose 1-10 mg/kg
[9] = Cardiotoxicity in human iPSC-derived cardiomyocyte assessed as effect on intracellular cardiomyocyte contraction at 10 uM measured for 2 mins by FLIPR analysis; type: toxicity, cell-based; settings: cardiac muscle cell
CYP2C9 = CYP2C9 (Homo sapiens, UniProt P11712); assay: Inhibition of CYP2C9 in human liver microsomes using diclofenac as substrate assessed as residual activity at 10 uM preincubated for 5 mins followed by substrate addition and measured after 15 mins in presence of NADPH by LC-MS/MS analysis; type: ADME, Microsome; settings: probe diclofenac, time 20 min, read-out: Activity
Chain of CYP2C9 (P11712 whole entry): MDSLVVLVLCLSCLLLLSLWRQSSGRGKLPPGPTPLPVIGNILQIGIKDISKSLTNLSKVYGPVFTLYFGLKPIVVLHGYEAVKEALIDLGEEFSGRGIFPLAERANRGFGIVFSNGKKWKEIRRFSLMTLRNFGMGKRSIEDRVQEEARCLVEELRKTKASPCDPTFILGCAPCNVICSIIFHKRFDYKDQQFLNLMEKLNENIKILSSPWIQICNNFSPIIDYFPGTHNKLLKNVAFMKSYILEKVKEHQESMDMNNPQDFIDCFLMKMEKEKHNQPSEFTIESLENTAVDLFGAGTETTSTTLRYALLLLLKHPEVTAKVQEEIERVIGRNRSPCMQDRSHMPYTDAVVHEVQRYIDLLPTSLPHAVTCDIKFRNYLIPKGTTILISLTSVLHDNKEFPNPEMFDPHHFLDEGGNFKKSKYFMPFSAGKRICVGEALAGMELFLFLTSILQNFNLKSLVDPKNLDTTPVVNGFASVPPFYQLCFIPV

[10] = Observed MRT (infinitive) in ICR mouse at 10 mg/kg, po measured at 0.25 to 12 hrs by LC-MS/MS analysis; type: ADME, organism-based; settings: in vivo, time 0.25-12 hrs
[11] = biological target: T2, Sphingosine 1-phosphate receptor 1 (Homo sapiens, UniProt P21453); assay: Agonist activity at S1P1 (unknown origin) expressed in PathHunter CHO-K1 EDG1 beta-arrestin cells assessed as beta-arrestin2 recruitment at 1 uM incubated for 90 mins by chemiluminescence based assay relative to control; type: functional, cell-based; settings: filed as agonist
T2 sequence (P21453 whole entry): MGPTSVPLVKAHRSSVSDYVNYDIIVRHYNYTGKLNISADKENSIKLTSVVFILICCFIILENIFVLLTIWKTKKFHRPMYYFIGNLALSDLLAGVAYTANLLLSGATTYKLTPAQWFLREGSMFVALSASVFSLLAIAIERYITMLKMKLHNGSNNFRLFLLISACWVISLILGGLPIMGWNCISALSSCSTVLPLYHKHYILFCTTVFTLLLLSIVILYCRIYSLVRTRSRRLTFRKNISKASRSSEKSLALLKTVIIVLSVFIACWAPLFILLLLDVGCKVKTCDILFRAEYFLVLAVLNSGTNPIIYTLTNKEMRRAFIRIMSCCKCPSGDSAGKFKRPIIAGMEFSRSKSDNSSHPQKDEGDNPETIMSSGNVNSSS

Mus musculus [12] = assay: Protection against MOG35-55/CFA-induced experimental autoimmune encephalomyelitis C57BL/6 mouse model assessed as reduction disease progression at 10 mg/kg, po administered once a day for 23 days; type: functional, organism-based; settings: time 23.0 day
[13] = AUClast in ICR mouse at 10 mg/kg, po measured at 0.25 to 12 hrs by LC-MS/MS analysis; type: ADME, organism-based; set-up: time 0.25-12 hrs, dose 10 mg/kg, route po; settings: in vivo
[14] = Oral bioavailability in ICR mouse at 10 mg/kg measured at 0.25 to 12 hrs by LC-MS/MS analysis; type: ADME, organism-based; settings: in vivo, time 0.25-12 hrs
CYP2D6 = CYP2D6 (Homo sapiens, UniProt P10635); assay: Inhibition of CYP2D6 in human liver microsomes using dextromethorphan as substrate assessed as residual activity at 10 uM preincubated for 5 mins followed by substrate addition and measured after 15 mins in presence of NADPH by LC-MS/MS analysis; type: ADME, Microsome; settings: probe dextromethorphan, time 20 min, read-out: Activity
Chain of CYP2D6 (P10635 whole entry): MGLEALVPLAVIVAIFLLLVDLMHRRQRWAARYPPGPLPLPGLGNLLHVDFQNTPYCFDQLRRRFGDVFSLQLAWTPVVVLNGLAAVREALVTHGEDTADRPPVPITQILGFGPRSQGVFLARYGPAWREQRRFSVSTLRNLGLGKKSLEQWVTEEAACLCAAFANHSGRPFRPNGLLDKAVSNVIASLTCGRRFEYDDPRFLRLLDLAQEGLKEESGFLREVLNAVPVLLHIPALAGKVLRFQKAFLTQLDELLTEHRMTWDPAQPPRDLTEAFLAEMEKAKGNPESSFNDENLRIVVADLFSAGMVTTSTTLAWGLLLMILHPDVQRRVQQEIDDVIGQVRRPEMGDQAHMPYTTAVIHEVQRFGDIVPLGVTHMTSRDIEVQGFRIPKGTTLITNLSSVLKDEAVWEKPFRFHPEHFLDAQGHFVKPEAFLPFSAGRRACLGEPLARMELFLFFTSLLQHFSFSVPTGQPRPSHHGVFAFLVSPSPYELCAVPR

[15] = Half life in ICR mouse at 10 mg/kg, po measured at 0.25 to 12 hrs by LC-MS/MS analysis; type: ADME, organism-based; settings: in vivo, time 0.25-12 hrs
[16] = Observed MRT (infinitive) in ICR mouse at 1 mg/kg, iv measured at 0.25 to 12 hrs by LC-MS/MS analysis; type: ADME, organism-based; settings: in vivo, time 0.25-12 hrs
[17] = biological target: T2, Sphingosine 1-phosphate receptor 1; assay: Agonist activity at S1P1 (unknown origin) expressed in human HEK293/Galpha15 cells assessed as Ca2+ activation measured for 2 hrs by FLIPR analysis; type: functional, cell-based
Mus musculus [18] = assay: In vivo agonist activity at S1P1 in mouse assessed as reduction in peripheral lymphocyte count at 1 to 3 mg/kg, po measured at 3 hrs; type: functional, organism-based; settings: dose 1-3 mg/kg
[19] = biological target: Sphingosine 1-phosphate receptor 3 (Homo sapiens, UniProt Q99500); assay: Agonist activity at S1P3 (unknown origin) expressed in PathHunter CHO-K1 EDG1 beta-arrestin cells assessed as beta-arrestin recruitment; type: functional, cell-based
Chain of Sphingosine 1-phosphate receptor 3 (Q99500 whole entry): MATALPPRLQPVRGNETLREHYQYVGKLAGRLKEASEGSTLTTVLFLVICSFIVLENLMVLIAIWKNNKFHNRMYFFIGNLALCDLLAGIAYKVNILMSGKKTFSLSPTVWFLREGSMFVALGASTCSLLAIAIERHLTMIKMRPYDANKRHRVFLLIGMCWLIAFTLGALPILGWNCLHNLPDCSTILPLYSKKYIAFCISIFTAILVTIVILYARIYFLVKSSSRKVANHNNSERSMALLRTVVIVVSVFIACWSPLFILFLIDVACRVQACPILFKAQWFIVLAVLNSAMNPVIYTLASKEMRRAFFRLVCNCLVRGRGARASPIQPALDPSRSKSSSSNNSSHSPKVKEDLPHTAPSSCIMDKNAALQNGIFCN

Mus musculus [20] = assay: In vivo agonist activity at S1P1 in mouse assessed as reduction in peripheral lymphocyte count at 10 mg/kg, po measured at 6 hrs; type: functional, organism-based
[21] = Cmax in ICR mouse at 10 mg/kg, po measured at 0.25 to 12 hrs by LC-MS/MS analysis; type: ADME, organism-based; set-up: time upper 12 hrs, dose 10 mg/kg, time lower 0.25 hrs, route po; settings: in vivo
Mus musculus [22] = assay: In vivo agonist activity at S1P1 in mouse assessed as reduction in peripheral lymphocyte count at 10 mg/kg, po measured at 3 hrs; type: functional, organism-based
[23] = Observed clearance in ICR mouse at 1 mg/kg, iv measured at 0.25 to 12 hrs by LC-MS/MS analysis; type: ADME, organism-based; settings: in vivo, time 0.25-12 hrs
[24] = Microsomal stability in mouse liver microsomes assessed as parent compound remaining preincubated for 5 mins followed by NADPH addition measured after 60 mins by LC-MS/MS analysis; type: ADME, Microsome; settings: time 65 min, read-out: Stability
[25] = biological target: T1, Sphingosine 1-phosphate receptor 4; assay: Agonist activity at S1P4 (unknown origin) expressed in PathHunter CHO-K1 EDG1 beta-arrestin cells assessed as beta-arrestin recruitment; type: functional, cell-based
[26] = biological target: T2, Sphingosine 1-phosphate receptor 1; assay: Agonist activity at S1P1 (unknown origin) expressed in human HEK293/Galpha15 cells assessed as Ca2+ activation at 1 uM measured for 2 hrs by FLIPR analysis relative to control; type: functional, cell-based; settings: filed as agonist
[27] = AUClast in ICR mouse at 1 mg/kg, iv measured at 0.25 to 12 hrs by LC-MS/MS analysis; type: ADME, organism-based; set-up: time lower 0.25 hrs, dose 1 mg/kg, time upper 12 hrs, route iv; settings: in vivo
[28] = Half life in ICR mouse at 1 mg/kg, iv measured at 0.25 to 12 hrs by LC-MS/MS analysis; type: ADME, organism-based; settings: in vivo, time 0.25-12 hrs
[29] = biological target: T2, Sphingosine 1-phosphate receptor 1; assay: Agonist activity at S1P1 (unknown origin) expressed in PathHunter CHO-K1 EDG1 beta-arrestin cells assessed as beta-arrestin2 recruitment incubated for 90 mins by chemiluminescence based assay; type: functional, cell-based
[30] = Microsomal stability in rat liver microsomes assessed as parent compound remaining preincubated for 5 mins followed by NADPH addition measured after 60 mins by LC-MS/MS analysis; type: ADME, Microsome; settings: time 65 min, read-out: Stability
[31] = Cardiotoxicity in human iPSC-derived cardiomyocyte assessed as effect on intracellular cardiomyocyte contraction at 20 uM measured for 2 mins by FLIPR analysis; type: toxicity, cell-based; settings: cardiac muscle cell

activity at 0.25 h, 10 µM (CYP3A4): 96.4% | pEC50 [1]: 6.96 | pEC50 [2]: < 4.00 | Tmax [4]: 5 h | pEC50 [6]: 4.48 | Vd [7]: 0.6 L/kg | activity at 0.25 h, 10 µM (CYP2C9): 96.2% | MRT inf [10]: 2.5 h | Activity [11]: 81% | AUC(0-t) [13]: 1960 ng·h/mL | bioavailability [14]: 33% | activity at 0.25 h, 10 µM (CYP2D6): 94.8% | half-life [15]: 1.8 h | MRT inf [16]: 0.4 h | pEC50 [17]: 7.68 | pEC50 [19]: < 4.00 | Cmax [21]: 1130 ng/mL | clearance [23]: 29 mL/min/kg | remaining at 1 h [24]: 67.1% | pEC50 [25]: 4.75 | Activity [26]: 113% | AUC(0-t) [27]: 593 ng·h/mL | half-life [28]: 0.6 h | pEC50 [29]: 7.80 | remaining at 1 h [30]: 62.2%
Structure (SMILES): CC(C)Oc1ccc(COc2ccc3c(c2)CCCN(S(=O)(=O)CCC(=O)O)C3)cc1C#N
Activity (Mus musculus [3]): Active | Activity [5]: Non-Toxic | Activity (Mus musculus [8]): Dose-Dependent Effect | Activity [9]: Non-Toxic | Activity (Mus musculus [12]): Active | Activity (Mus musculus [18]): Active | Activity (Mus musculus [20]): Active | Activity (Mus musculus [22]): Active

Structure (SMILES): CC(C)NCC(O)c1ccc(NS(C)(=O)=O)cc1 (centres undefined) [SOTALOL]
Activity [31]: Non-Toxic
